In the first experiment the target is PARG (389-976) (Homo sapiens (Human), UniProt Q86W56). Description: PARG enzyme inhibition assay (TR-FRET). In kind it is biochemical. The note with it: Table 1, class symbol. How it is done: PARG Enzyme Inhibition Assay
Sequence of PARG (389-976) (Q86W56 389-976): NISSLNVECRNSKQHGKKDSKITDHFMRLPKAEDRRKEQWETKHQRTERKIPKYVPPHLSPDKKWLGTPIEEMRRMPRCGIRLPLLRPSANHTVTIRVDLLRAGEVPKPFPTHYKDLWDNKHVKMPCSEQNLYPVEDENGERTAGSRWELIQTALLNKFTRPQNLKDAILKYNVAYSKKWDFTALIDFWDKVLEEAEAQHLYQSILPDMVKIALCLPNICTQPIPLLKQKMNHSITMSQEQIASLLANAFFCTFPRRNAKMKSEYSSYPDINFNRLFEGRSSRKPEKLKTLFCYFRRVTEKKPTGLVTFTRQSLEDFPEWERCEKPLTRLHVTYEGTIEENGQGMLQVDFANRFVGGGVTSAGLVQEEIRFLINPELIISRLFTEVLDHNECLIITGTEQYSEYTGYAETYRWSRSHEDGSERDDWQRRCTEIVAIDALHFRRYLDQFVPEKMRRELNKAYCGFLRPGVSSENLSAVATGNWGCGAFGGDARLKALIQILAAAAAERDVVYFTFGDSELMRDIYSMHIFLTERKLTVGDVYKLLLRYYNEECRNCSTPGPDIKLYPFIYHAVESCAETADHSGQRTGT
PARG in vitro assays were conducted in standard 384-well plates in a total volume of 15 μL.
For orientation: Time-resolved FRET reads energy transfer from a long-lived donor to a nearby acceptor.
In general, IC50 refers to the concentration needed to halve the response being measured. Low values mean greater potency in that assay, high ones weaker potency in that assay. `Cc1nc(C)c(Cn2cc(-c3nnc(C(F)F)s3)c3cc(S(=O)(=O)NC4(C)CC4)ccc32)s1` [Compound 8] registered an IC50 of less than 100 nM.

`Cc1nc(C)c(Cn2nc(-c3nnc(C(F)F)s3)c3cc(S(=O)(=O)NC4(C)CC4)cnc32)s1` [Compound 9] displayed a concentration for half-maximal inhibition (IC50) of less than 100 nM.

Still in this experiment, the particulars now being: Table 2, class symbol.
In turn, `Cn1nc(-c2nnc(C(F)F)s2)c2cc(S(=O)(=O)NC3(C#N)CC3)cc(N3CCN(C(=O)C4(C)CC4)CC3)c21` [Compound 38] yielded an IC50 of less than 100 nM.

Consider `CC(C)C(=O)N1C2CCC1CN(c1cc(S(=O)(=O)NC3(C)CC3)cc3c(-c4nnc(C(F)F)s4)nn(C)c13)C2` [Compound 65], for which the IC50 is less than 100 nM.

The compound `CC(C)C(=O)N1CCN(c2cc(S(=O)(=O)NC3(C)CC3)cc3c(-c4nnc(C(F)F)s4)nn(C)c23)C2CC21` (centres unmarked) [Compound 63] yielded an IC50 of less than 100 nM.

As for `Cn1nc(-c2nnc(C(F)F)s2)c2cc(S(=O)(=O)NC3(C#N)CC3)cc(N3CCN(C(=O)C4CC4)CC3)c21` [Compound 24], the IC50 was less than 100 nM.

As to `CC(C)C(=O)N1CCN(c2cc(S(=O)(=O)NC3(C)CC3)cc3c(-c4nnc(C(F)F)s4)nn(C4CC4)c23)CC1` [Compound 21], the IC50 was less than 100 nM.

Consider `Cn1nc(-c2nnc(C(F)F)s2)c2cc(S(=O)(=O)NC3(C)CC3)cc(N3CCOCC3)c21` [Compound 25], for which the IC50 was less than 100 nM.

As to `CC(C)C(=O)N1CCN(c2cc(S(=O)(=O)NC3(C)CC3)cc3c(-c4nnc(C(F)F)s4)csc23)CC1` [Compound 64], the concentration for half-maximal inhibition (IC50) is less than 100 nM.

`CC(C)C(=O)N1CCN(c2cc(S(=O)(=O)NC3(C#N)CC3)cc3c(-c4cnn(C)c4)nn(C)c23)CC1` [Compound 61] gave a concentration for half-maximal inhibition (IC50) of less than 100 nM.

Staying with this experiment, now noted: Table 3, class symbol.
Compound `CC(C)C(=O)N1C2COCC1CN(c1cc(S(=O)(=O)NC3(C#N)CC3)cc3c(-c4nnc(C(F)F)s4)nn(C)c13)C2` [Compound 86] returned an IC50 of less than 100 nM.

Turning to `CCn1nc(-c2nnc(C(F)F)s2)c2cc(S(=O)(=O)NC3(C#N)CC3)cc(N3C4CCC3CN(C(=O)C(C)C)C4)c21` [Compound 94], the IC50 is less than 100 nM.

For the compound `N#CC1(NS(=O)(=O)c2cc(C3=CC4CCC(C3)N4C(=O)C3CCCC3)c3c(c2)c(-c2nnc(C(F)F)s2)nn3CC(F)(F)F)CC1` (centres unmarked) [Compound 119], the IC50 was less than 100 nM.

For the compound `C[C@H](N)C(=O)N1C2CCC1CC(c1cc(S(=O)(=O)NC3(C#N)CC3)cc3c(-c4nnc(C(F)F)s4)nn(C)c13)C2` (some centres unmarked) [Compound 128], the half-maximal inhibitory concentration (IC50) was less than 100 nM.

Turning to `C[C@H](N)C(=O)N1CCC(c2cc(S(=O)(=O)NC3(C#N)CC3)cc3c(-c4nnc(C(F)F)s4)nn(C)c23)CC1` [Compound 98], the concentration for half-maximal inhibition (IC50) is less than 100 nM.

`C[C@@H]1CN(c2cc(S(=O)(=O)NC3(C#N)CC3)cc3c(-c4nnc(C(F)F)s4)nn(C)c23)CCN1C(=O)N(C)C` [Compound 70]: the IC50 was less than 100 nM.

In turn, `CC(C)C(=O)N1CCC(c2cc(S(=O)(=O)NC3(C#N)CC3)cc3c(-c4nnc(C(F)F)s4)nn(C)c23)CC1` [Compound 116] had an IC50 of less than 100 nM.

`COCCn1nc2c(N3CC4CCC(C3)N4C(=O)C(C)C)cc(S(=O)(=O)NC3(C#N)CC3)cc2c1-c1nnc(C(F)F)s1` [Compound 99] registered an IC50 of less than 100 nM.

Compound `CC(C)C(=O)N1CCN2c3cc(S(=O)(=O)NC4(C#N)CC4)cc4c(-c5nnc(C(F)F)s5)nn(c34)CC2C1` (centres unmarked) [Compound 117] yielded an IC50 of less than 100 nM.

For `CC(C)C(=O)N1C2CCC1CN(c1cc(S(=O)(=O)NC3(C#N)CC3)cc3c(-c4nnc(C(F)F)s4)nn(CC(F)(F)F)c13)C2` [Compound 95], the 50% inhibitory concentration (IC50) was less than 100 nM.

In the case of `CCN(C)C(=O)N1CCN(c2cc(S(=O)(=O)NC3(C#N)CC3)cc3c(-c4nnc(C(F)F)s4)nn(C)c23)CC1` [Compound 145], the IC50 was less than 100 nM.

In turn, `Cn1nc(-c2nnc(C(F)F)s2)c2cc(S(=O)(=O)NC3(C#N)CC3)cc(N3CC4CCC(C3)C4C(C)(C)O)c21` (centres unmarked) [Compound 130] returned a concentration for half-maximal inhibition (IC50) of 100 to 1000 nM.

Turning to `CC(C)CC(=O)N1CCN(c2cc(S(=O)(=O)NC3(C#N)CC3)cc3c(-c4nnc(C(F)F)s4)nn(C)c23)CC1` [Compound 146], the half-inhibitory concentration (IC50) was less than 100 nM.

Source of the values: patent US20230278998A1, “Compound containing structure of a five-membered heteroaromatic ring, pharmaceutical compositions thereof and applications thereof” (280 Bio, Inc., priority 2022, published 2023).
